This note sets out measurements from US7906510B2, “Amide derivative and pharmaceutical composition containing the same” (Dainippon Sumito Pharma Co., Ltd., priority 2008, dated 2011).

The target in one data set is T1, 5-HT4 receptor (Cavia porcellus, UniProt O70528).
T1 construct: the mixture was suspended to give receptor membrane preparations; from tissue; host or cells: guinea pig (Slc-Hartley) brain striatum membranes
In words: Serotonin 4 (5-HT4) receptor binding assay. More on the design: species or system guinea pig. The following applies: inhibition of specific binding of 0.1 nM [3H]-GR113808; guinea pig striatum membrane preparations; 37° C., 30 minutes; read-out: IC50. Here is the method:
5-HT4 receptor binding assay and preparations of receptor membrane preparations were carried out according to a method of Grossman et al. [see British J. Pharmacol., (1993) 109, 618].
Slc-Hartley guinea pigs (body weight 300 to 400 g) were decapitated to remove brain rapidly, and striatum was isolated. To the obtained tissues were added fifteenfold of Hepes buffer (50 mM, pH7.4, 4° C.), and the mixture was homogenized by Teflon® homogenizer and centrifuged at 48,000×g (4° C.) for 15 minutes. To the resulting precipitate was added Hepes buffer (1 ml) to 30 mg by wet weight of tissues, and the mixture was suspended to give receptor membrane preparations.
0.1 nM [^3H]-GR113808 {chemical name: [1-[2-(methylsulfonylamino)ethyl]-4-piperidinyl]methyl 1-methylindole-3-carboxylate}, receptor membrane preparations, and Hepes buffer (50 mM, pH7.4, 4° C., 1 ml) containing test compounds or 30 μM serotonin were placed in an assay tube, and incubated at 37° C. for 30 minutes. On quenching the reaction, the mixture was rapidly filtered on whatman GF/B filter, which was presoaked in 0.1% polyethyleneimine for 1 hour, by using Brandel cell Harvester, and washed with ice-cooled 50 mM Tris-HCl (pH7.7, 4 ml) three times. To the filter after filtration was added ACS II scintillator, and then a radioactivity was determined by a liquid scintillation counter.
50% inhibition concentrations (IC50) were determined from inhibition rates of test compounds to specific bindings which were obtained by subtracting nonspecific bindings from total binding amounts of [^3H]-GR113808.

Another data set relates to Male Slc-ddy mice. In words: Mouse defecation assay. As to conditions: 3 mg/kg orally; stool weight 30, 60 and 120 minutes after administration; Dunnett assay vs control. The data set is classed as in vivo. More on the design: key: −: No Effect; +: Moderately Improved (p<0.05); ++: Significantly Improved (p<0.01). Here is the method: Male Slc-ddy mice (body weight 25 to 30 g) were used and allowed to ingest food and water ad libitum until commencement of experiments.
A group of 25 mice was divided into 5 groups, which 5 mice each per group were respectively transferred to fasting cages to adjust to new environments for about 1 hour. Then, each mouse was orally administered 3 mg/kg suspension of a test compound in 0.5% tragacanth solution to measure each stool weight of each group 30, 60, and 120 minutes after oral administration.
Efficacies were evaluated by Dunnett assay between test compounds and control.

For data set [1], the system named is Male Slc-Hartley guinea pigs. In words: Electrocardiographic assay for guinea pig. As to conditions: dose extending 5% of QTc; i.v. infusion for 15 minutes, anesthetized guinea pigs, ECG lead II.
Protocol: Male Slc-Hartley guinea pigs were anesthetized to determine electrocardiogram (lead II) under artificial respiration. A drug solution was continuously and intravenously infused via cannula indwelled in cervical veins at a flow rate: 0.2 ml/kg/min for 15 minutes.

Each structure is given as a SMILES string. Where a name gives a salt, the structure may show the parent alone.

T1 sequence (O70528 whole entry): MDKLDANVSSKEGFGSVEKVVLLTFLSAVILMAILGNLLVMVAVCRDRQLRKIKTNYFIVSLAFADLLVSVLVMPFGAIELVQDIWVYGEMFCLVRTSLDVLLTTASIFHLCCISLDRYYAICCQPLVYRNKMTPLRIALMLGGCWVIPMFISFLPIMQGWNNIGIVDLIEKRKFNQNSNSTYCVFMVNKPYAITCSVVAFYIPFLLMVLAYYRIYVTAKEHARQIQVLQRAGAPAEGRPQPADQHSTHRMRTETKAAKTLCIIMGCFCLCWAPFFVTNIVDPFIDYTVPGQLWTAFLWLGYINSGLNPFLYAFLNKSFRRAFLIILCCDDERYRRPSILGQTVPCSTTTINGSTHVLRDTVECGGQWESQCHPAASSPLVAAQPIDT

Broadly, the melting point is the temperature of the solid-liquid transition. Regarding `CCOc1cc(N)c(Cl)cc1C(=O)NCC1CN(CC2CCN(C#N)CC2)CCO1` (stereo not shown) [Example 211, 4-amino-5-chloro-N-[{4-[(1-cyano-4-piperidinyl)methyl]-2-morpholinyl}-methyl]-2-ethoxybenzamide], the melting point was 197 °C (dec.).
By IC50 is commonly meant the concentration that inhibits the measured activity by half. As to `COc1cc(N)c(Cl)cc1C(=O)NC[C@H]1CN(CC2CCN(C(=O)c3cocn3)CC2)CCO1` [Example 228], the half-maximal inhibitory concentration (IC50) on 5-HT4 receptor came out at 13.1 nM. In the data set with Male Slc-ddy mice, the Effect entry is given as “++”. For the same molecule, in data set [1], the “ED5% (mg/kg,i.v.)” value was over 30 mg/kg.
Take `COc1cc(N)c(Cl)cc1C(=O)N[C@H]1CCN(CCCOc2ccc(F)cc2)C[C@H]1OC` (relative stereo) [Cisapride, cis-4-amino-5-chloro-N-[1-[3-(4-fluorophenoxy)propyl]-3-methoxy-4-piperidinyl]-2-methoxybenzamide, reference compound]: in the data set on Male Slc-ddy mice, the Effect entry was “−”. Moreover, in data set [1], the “ED5% (mg/kg,i.v.)” value came out at 0.3 mg/kg.
Turning to `COc1cc(N)c(Cl)cc1C(=O)NC[C@H]1CN(CC2CCN(C(=O)c3nc[nH]n3)CC2)CCO1` [Example 229], the IC50 at 5-HT4 receptor turned out to be 18.1 nM. In addition, in the data set with Male Slc-ddy mice, the Effect entry is on record as “++”. Also, the “ED5% (mg/kg,i.v.)” value in data set [1] is over 30 mg/kg.
Taken in the same sequence, the figures for `COc1cc(N)c(Cl)cc1C(=O)NC[C@H]1CN(CC2CCN(C(=O)CO)CC2)CCO1` [Example 198, 4-amino-5-chloro-N-[{4-[(1-hydroxyacetyl-4-piperidinyl)methyl]-2-morpholinyl}methyl]-2-methoxybenzamide hydrochloride] were 25.9 nM, “++” and over 30 mg/kg.
Taken in the same sequence, the figures for `CCOc1cc(N)c(Cl)cc1C(=O)NC[C@H]1CN(CC2CCN(C(=O)c3ccc(Cl)cc3)CC2)CCO1` [Example 116] were 0.68 nM, “+” and over 30 mg/kg.
With `COc1cc(N)c(Cl)cc1C(=O)NCC1CN(CC2CCN(C(=O)N(C)C)CC2)CCO1` (stereo not shown) [Example 67, 4-amino-5-chloro-N-[{4-[(1-dimethylcarbamoyl-4-piperidinyl)methyl]-2-morpholinyl}methyl]-2-methoxybenzamide], the melting point was 179 to 180 °C.
On to `CN(C)C(=O)N1CCC(CN2CCOC(CNC(=O)c3cc(Cl)c(N)c4c3OCC4)C2)CC1` (stereo not shown) [Example 135, 4-amino-5-chloro-N-[{4-[(1-dimethylcarbamoyl-4-piperidinyl)methyl]-2-morpholinyl}methyl]-2,3-dihydrobenzo[b]furan-7-carboxamide 1.5 fumarate], for which the concentration for half-maximal inhibition (IC50) on 5-HT4 receptor was 6.04 nM. Besides, the Effect entry in the data set on Male Slc-ddy mice is “++”. In addition, in data set [1], the “ED5% (mg/kg,i.v.)” value is given as over 30 mg/kg.
Taken in the same sequence, the figures for `COc1ccc(C(=O)N2CCC(CN3CCO[C@@H](CNC(=O)c4cc(Cl)c(N)cc4OC)C3)CC2)cc1` [Example 125] were 3.51 nM, “++” and over 30 mg/kg.
Taken in the same sequence, the figures for `COc1cc(N)c(Cl)cc1C(=O)NC[C@H]1CN(CC2CCN(C(=O)c3cccc(C)c3)CC2)CCO1` [Example 119] were 2.05 nM, “+” and over 30 mg/kg.
For `CC(=O)N1CCC(CN2CCO[C@@H](CNC(=O)c3cc(Cl)c(N)c4c3OCC4)C2)CC1` [Example 231], the IC50 on 5-HT4 receptor stood at 9.18 nM. Further, the Effect entry with Male Slc-ddy mice is “++”.
Regarding `COc1cc(N)c(Cl)cc1C(=O)NC[C@H]1CN(CC2CCN(S(C)(=O)=O)CC2)CCO1` [Example 94], the IC50 on 5-HT4 receptor amounted to 11.9 nM. Further, in the data set on Male Slc-ddy mice, the Effect result is “++”. In addition, the “ED5% (mg/kg,i.v.)” value in data set [1] is over 30 mg/kg.
Taken in the same sequence, the figures for `COc1cc(N)c(Cl)cc1C(=O)NC[C@H]1CN(CC2CCN(C(=O)[C@H](C)OC)CC2)CCO1` [Example 225] were 20.2 nM, “++” and over 30 mg/kg.
Take `COc1cc(N)c(Cl)cc1C(=O)NC[C@H]1CN(CC2CCN(C(=O)Nc3ccc(Cl)c(Cl)c3)CC2)CCO1` [Example 58]: the IC50 on 5-HT4 receptor was determined as 1.97 nM. Besides, in the data set on Male Slc-ddy mice, the Effect result is “+”.
Take `COc1cc(N)c(Cl)cc1C(=O)NC[C@H]1CN(CC2CCN(C(C)=O)CC2)CCO1` [Example 221]: the half-inhibitory concentration (IC50) at 5-HT4 receptor amounted to 45.2 nM. In addition, in the data set on Male Slc-ddy mice, the Effect result is given as “++”. Also, in data set [1], the “ED5% (mg/kg,i.v.)” value was over 30 mg/kg.
Regarding `COc1cc(N)c(Cl)cc1C(=O)NCC1CN(CC2CCN(C(=O)n3ccnc3)CC2)CCO1` [Example 207, (S)-4-amino-5-chloro-N-[{4-[(1-imidazolecarbonyl-4-piperidinyl)methyl]-2-morpholinyl}methyl]-2-methoxybenzamide], the Effect result in the data set with Male Slc-ddy mice is “++”. The “ED5% (mg/kg,i.v.)” value in data set [1] was over 30 mg/kg.
Take `COc1cc(N)c(Cl)cc1C(=O)NC[C@H]1CN(CC2CCN(C(=O)C(C)=O)CC2)CCO1` [Example 227]: on 5-HT4 receptor, the half-inhibitory concentration (IC50) stood at 6.2 nM. The Effect entry with Male Slc-ddy mice is “++”.
With `COc1cc(N)c(Cl)cc1C(=O)NC[C@H]1CN(CC2CCN(C(=O)c3ccc(OC(C)=O)cc3)CC2)CCO1` [Example 169], the IC50 at 5-HT4 receptor was 6.09 nM. The Effect entry in the data set with Male Slc-ddy mice is “++”. The “ED5% (mg/kg,i.v.)” value in data set [1] is over 30 mg/kg.
Taken in the same sequence, the figures for `CCOc1cc(N)c(Cl)cc1C(=O)NC[C@H]1CN(CC2CCN(C(=O)c3ccc(C)cc3)CC2)CCO1` [Example 121] were 0.23 nM, “++” and over 30 mg/kg.
In the same order, the values of `COc1cccc(C(=O)N2CCC(CN3CCO[C@@H](CNC(=O)c4cc(Cl)c(N)cc4OC)C3)CC2)c1` [Example 124] are 1.95 nM, “+” and over 30 mg/kg.
Taken in the same sequence, the figures for `COc1cc(N)c(Cl)cc1C(=O)NC[C@H]1CN(CC2CCN(C(=O)c3ccccc3OC(C)=O)CC2)CCO1` [Example 166] were 6.93 nM, “++” and over 30 mg/kg.
Turning to `COc1cc(N)c(Cl)cc1C(=O)NC[C@H]1CN(CC2CCN(C(=O)N3CCCC3)CC2)CCO1` [Example 89], at 5-HT4 receptor, the IC50 was found to be 7.33 nM. Besides, the Effect result with Male Slc-ddy mice is reported as “+”.
As to `COc1cc(N)c(Cl)cc1C(=O)NC[C@H]1CN(CC2CCN(C(=O)CC#N)CC2)CCO1` [Example 223], the half-inhibitory concentration (IC50) at 5-HT4 receptor was found to be 18.6 nM. Moreover, the Effect result in the data set on Male Slc-ddy mice was “++”.
For `COC(=O)N1CCC(CN2CCO[C@@H](CNC(=O)c3cc(Cl)c(N)cc3OC)C2)CC1` [Example 92], in the data set on Male Slc-ddy mice, the Effect entry is recorded as “+”. Besides, the “ED5% (mg/kg,i.v.)” value in data set [1] is over 30 mg/kg.
In the same order, the values of `C=CCOC(=O)N1CCC(CN2CCO[C@@H](CNC(=O)c3cc(Cl)c(N)cc3OC)C2)CC1` [Example 100] are “++” and over 30 mg/kg.
With `COCC(=O)N1CCC(CN2CCO[C@@H](CNC(=O)c3cc(Cl)c(N)cc3OC)C2)CC1` [Example 132], the Effect result in the data set with Male Slc-ddy mice is reported as “++”. For the same molecule, the “ED5% (mg/kg,i.v.)” value in data set [1] is over 30 mg/kg.
Take `COc1cc(N)c(Cl)cc1C(=O)NC[C@H]1CN(CC2CCN(C(=O)C3CCOC3)CC2)CCO1` (stereo partly shown) [Example 226]: the 50% inhibitory concentration (IC50) on 5-HT4 receptor came to 21.2 nM. The Effect result with Male Slc-ddy mice is recorded as “++”. Besides, in data set [1], the “ED5% (mg/kg,i.v.)” value is given as over 30 mg/kg.
As to `COC(=O)N1CCC(CN2CCOC(CNC(=O)c3cc(Cl)c(N)c4c3OCC4)C2)CC1` (stereo not shown) [Example 138], at 5-HT4 receptor, the 50% inhibitory concentration (IC50) was determined as 2.8 nM. In the data set with Male Slc-ddy mice, the Effect entry was “++”.
As for `COc1cc(N)c(Cl)cc1C(=O)NC[C@H]1CN(CC2CCN(S(=O)(=O)N(C)C)CC2)CCO1.O=C(O)/C=C/C(=O)O` [Example 80], the Effect entry with Male Slc-ddy mice is on record as “+”. Besides, in data set [1], the “ED5% (mg/kg,i.v.)” value is listed as over 30 mg/kg.
On to `COc1cc(N)c(Cl)cc1C(=O)NC[C@H]1CN(CC2CCN(C(=O)CNC(=O)c3ccccc3)CC2)CCO1` [Example 222], for which the IC50 at 5-HT4 receptor came to 17.2 nM. For the same molecule, the Effect entry in the data set on Male Slc-ddy mice is given as “++”. The “ED5% (mg/kg,i.v.)” value in data set [1] is reported as over 30 mg/kg.
On to `COc1cc(N)c(Cl)cc1C(=O)NC[C@H]1CN(CC2CCN(C(=O)Nc3ccccc3)CC2)CCO1` [Example 52], for which the half-maximal inhibitory concentration (IC50) on 5-HT4 receptor stood at 1.94 nM. The Effect result in the data set with Male Slc-ddy mice is given as “−”.
For the molecule `CCc1ccc(C(=O)N2CCC(CN3CCO[C@@H](CNC(=O)c4cc(Cl)c(N)cc4OC)C3)CC2)cc1` [Example 122], the IC50 at 5-HT4 receptor was 0.87 nM. For the same molecule, in the data set on Male Slc-ddy mice, the Effect result is “+”. Further, in data set [1], the “ED5% (mg/kg,i.v.)” value is on record as over 30 mg/kg.
Taken in the same sequence, the figures for `COCCC(=O)N1CCC(CN2CCO[C@@H](CNC(=O)c3cc(Cl)c(N)cc3OC)C2)CC1` [Example 224] were 14.5 nM, “++” and over 30 mg/kg.
